These results are taken from patent publication US10392391B2 (Vertex Pharmaceuticals Incorporated, priority 2012, dated 2019).

pKi: −log10 of the molar value. Read-outs that look alike come from different tables or passages of the source.

This assay has as its target ATR kinase (full-length ATR) (Homo sapiens (Human), UniProt Q13535). The assay is described as follows: ATR inhibition assay (radioactive-phosphate incorporation). It is filed as biochemical. Summed up:
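Radiometric 33P incorporation by 5 nM full-length ATR into 800 μM target peptide with 10 μM [γ-33P]ATP, in 50 mM Tris/HCl pH 7.5, 10 mM MgCl2, 1 mM DTT, 7% DMSO, 25° C. Compound pre-incubated 10 minutes; reaction stopped after 24 hours, captured on phosphocellulose. Ki(app) from non-linear regression of initial rates.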

Where [1] appears, read: Ki(app), 5 nM full-length ATR, 10 μM ATP, 25° C.

Sequence of ATR kinase (full-length ATR) (Q13535 whole entry): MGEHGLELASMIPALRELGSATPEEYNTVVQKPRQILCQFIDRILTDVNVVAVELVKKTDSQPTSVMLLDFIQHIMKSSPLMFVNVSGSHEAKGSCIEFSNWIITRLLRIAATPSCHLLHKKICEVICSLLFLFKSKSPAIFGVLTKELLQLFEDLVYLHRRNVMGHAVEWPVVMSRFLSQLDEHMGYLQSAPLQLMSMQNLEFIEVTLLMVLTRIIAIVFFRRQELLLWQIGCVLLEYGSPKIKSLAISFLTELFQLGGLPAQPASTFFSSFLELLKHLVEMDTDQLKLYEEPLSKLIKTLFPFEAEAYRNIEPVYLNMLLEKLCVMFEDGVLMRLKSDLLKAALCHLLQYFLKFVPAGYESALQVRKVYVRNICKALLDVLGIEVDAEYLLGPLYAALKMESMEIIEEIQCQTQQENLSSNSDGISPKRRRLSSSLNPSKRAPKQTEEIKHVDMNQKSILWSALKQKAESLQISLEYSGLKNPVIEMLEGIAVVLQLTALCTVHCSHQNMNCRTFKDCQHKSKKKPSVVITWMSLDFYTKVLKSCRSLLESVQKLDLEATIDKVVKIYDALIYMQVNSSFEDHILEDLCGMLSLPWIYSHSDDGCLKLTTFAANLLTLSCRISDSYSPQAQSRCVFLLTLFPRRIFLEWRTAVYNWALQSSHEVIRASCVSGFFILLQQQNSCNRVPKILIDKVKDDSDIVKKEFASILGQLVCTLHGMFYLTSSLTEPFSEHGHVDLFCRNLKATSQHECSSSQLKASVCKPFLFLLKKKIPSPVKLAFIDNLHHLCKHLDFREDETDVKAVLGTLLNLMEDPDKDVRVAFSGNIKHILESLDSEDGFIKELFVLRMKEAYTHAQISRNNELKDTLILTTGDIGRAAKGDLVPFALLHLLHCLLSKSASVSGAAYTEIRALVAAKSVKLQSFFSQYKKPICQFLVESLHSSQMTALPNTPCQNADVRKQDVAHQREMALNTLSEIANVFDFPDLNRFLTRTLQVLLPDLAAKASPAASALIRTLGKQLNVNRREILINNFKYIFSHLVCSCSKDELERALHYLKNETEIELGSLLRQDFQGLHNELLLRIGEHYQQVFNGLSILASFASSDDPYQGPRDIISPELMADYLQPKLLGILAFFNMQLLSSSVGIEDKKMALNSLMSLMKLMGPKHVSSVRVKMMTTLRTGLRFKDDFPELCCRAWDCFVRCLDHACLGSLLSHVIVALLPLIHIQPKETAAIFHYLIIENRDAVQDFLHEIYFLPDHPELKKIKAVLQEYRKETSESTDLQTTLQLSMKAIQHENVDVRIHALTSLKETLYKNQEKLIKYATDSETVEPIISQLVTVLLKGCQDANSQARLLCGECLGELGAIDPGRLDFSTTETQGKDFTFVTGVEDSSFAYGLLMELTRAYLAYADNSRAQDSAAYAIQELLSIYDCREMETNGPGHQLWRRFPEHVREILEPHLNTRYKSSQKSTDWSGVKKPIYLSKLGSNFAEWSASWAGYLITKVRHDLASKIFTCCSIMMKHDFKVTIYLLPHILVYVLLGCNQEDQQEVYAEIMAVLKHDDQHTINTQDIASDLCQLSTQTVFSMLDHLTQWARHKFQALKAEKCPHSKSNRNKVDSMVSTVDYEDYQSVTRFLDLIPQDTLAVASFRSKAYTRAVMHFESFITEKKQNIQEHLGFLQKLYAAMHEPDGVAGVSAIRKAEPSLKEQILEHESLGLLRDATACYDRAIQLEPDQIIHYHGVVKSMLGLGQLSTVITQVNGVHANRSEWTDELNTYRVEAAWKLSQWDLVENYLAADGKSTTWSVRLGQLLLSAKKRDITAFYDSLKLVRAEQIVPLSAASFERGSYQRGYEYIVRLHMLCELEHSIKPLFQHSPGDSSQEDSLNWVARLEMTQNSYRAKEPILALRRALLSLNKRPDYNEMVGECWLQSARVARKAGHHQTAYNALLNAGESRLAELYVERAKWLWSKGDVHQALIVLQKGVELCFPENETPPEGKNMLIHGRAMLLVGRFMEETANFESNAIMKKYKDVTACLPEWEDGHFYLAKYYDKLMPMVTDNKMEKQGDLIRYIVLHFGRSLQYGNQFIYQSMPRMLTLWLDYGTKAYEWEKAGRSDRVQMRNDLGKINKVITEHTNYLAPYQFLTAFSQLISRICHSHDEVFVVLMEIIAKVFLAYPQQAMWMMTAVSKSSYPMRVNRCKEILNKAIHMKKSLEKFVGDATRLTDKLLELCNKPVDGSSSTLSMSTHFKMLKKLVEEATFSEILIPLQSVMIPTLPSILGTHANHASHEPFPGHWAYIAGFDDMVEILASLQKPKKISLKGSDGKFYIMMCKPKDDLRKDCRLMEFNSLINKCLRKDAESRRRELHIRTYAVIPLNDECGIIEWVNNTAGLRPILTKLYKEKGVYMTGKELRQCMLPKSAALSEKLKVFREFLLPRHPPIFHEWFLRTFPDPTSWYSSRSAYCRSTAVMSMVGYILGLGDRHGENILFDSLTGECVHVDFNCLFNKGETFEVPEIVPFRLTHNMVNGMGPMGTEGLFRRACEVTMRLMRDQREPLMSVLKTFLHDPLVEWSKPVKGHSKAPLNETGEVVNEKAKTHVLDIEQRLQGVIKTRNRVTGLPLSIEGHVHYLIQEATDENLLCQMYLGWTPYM

As usually defined, the pKi is the Ki on a negative log10 scale, so that one unit is a factor of ten. As for `CN1CCN(c2ccc(-c3ccncc3NC(=O)c3c(N)nn4cc(F)cnc34)cn2)CC1` [I-C-21, 2-amino-6-fluoro-N-(6-(4-methylpiperazin-1-yl)-[3,4′-bipyridin]-3′-yl)pyrazolo[1,5-a]pyrimidine-3-carboxamide], under setting [1], the pKi is 6.00 to 8.00.
`Nc1nn2cc(F)cnc2c1C(=O)Nc1cnccc1-c1ccnnc1` [I-C-26, 2-amino-6-fluoro-N-(4-(pyridazin-4-yl)pyridin-3-yl)pyrazolo[1,5-a]pyrimidine-3-carboxamide]: under setting [1], the pKi is 6.00 to 8.00.
As for `Nc1nn2cc(F)cnc2c1C(=O)Nc1cnccc1OC1CCC(C(=O)O)CC1` (stereo not drawn) [I-O-8, 4-((3-(2-amino-6-fluoropyrazolo[1,5-a]pyrimidine-3-carboxamido)pyridin-4-yl)oxy)cyclohexanecarboxylic acid], the pKi under setting [1] was 6.00 to 8.00.
On to `Nc1nn2cc(F)cnc2c1C(=O)Nc1cncc(F)c1N1CCC(C(=O)N2CC(O)C2)CC1` [I-G-41, 2-amino-6-fluoro-N-(5-fluoro-4-(4-(3-hydroxyazetidine-1-carbonyl)piperidin-1-yl)pyridin-3-yl)pyrazolo[1,5-a]pyrimidine-3-carboxamide], for which the pKi is 5.30 to 6.00.
For `Nc1nn2cc(F)cnc2c1C(=O)Nc1cnccc1N1CCN2CCOC[C@@H]2C1` [I-N-115, (S)-2-amino-6-fluoro-N-(4-(hexahydropyrazino[2,1-c][1,4]oxazin-8(1H)-yl)pyridin-3-yl)pyrazolo[1,5-a]pyrimidine-3-carboxamide], the pKi under setting [1] was 6.00 to 8.00.
For the molecule `Nc1nn2cc(Cl)cnc2c1C(=O)Nc1cncc(F)c1N1CCN(C2COC2)CC1` [I-N-117, 2-amino-6-chloro-N-(5-fluoro-4-(4-(oxetan-3-yl)piperazin-1-yl)pyridin-3-yl)pyrazolo[1,5-a]pyrimidine-3-carboxamide], under setting [1], the pKi is 6.00 to 8.00.
On to `CN(C)C1CN(C2CCN(c3ccncc3NC(=O)c3c(N)nn4cc(Cl)cnc34)CC2)C1` [I-N-94, 2-amino-6-chloro-N-(4-(4-(3-(dimethylamino)azetidin-1-yl)piperidin-1-yl)pyridin-3-yl)pyrazolo[1,5-a]pyrimidine-3-carboxamide], for which the pKi under setting [1] is 6.00 to 8.00.
On the same count and under the same terms, the value for `CN1CCC(Oc2ccncc2NC(=O)c2c(N)nn3cc(CC#N)cnc23)CC1` [I-O-23, 2-amino-6-(cyanomethyl)-N-(4-((1-methylpiperidin-4-yl)oxy)pyridin-3-yl)pyrazolo[1,5-a]pyrimidine-3-carboxamide] was 6.00 to 8.00; that for `Nc1nn2cc(F)cnc2c1C(=O)Nc1cncc(F)c1N1CCN2C(=O)CCC2C1` (stereo not drawn) [I-N-163, 2-amino-6-fluoro-N-(5-fluoro-4-(6-oxohexahydropyrrolo[1,2-a]pyrazin-2(1H)-yl)pyridin-3-yl)pyrazolo[1,5-a]pyrimidine-3-carboxamide] was 6.00 to 8.00; that for `CN1CCN(C(=O)c2cnc(-c3ccncc3NC(=O)c3c(N)nn4cc(F)cnc34)c(Cl)c2)CC1` [I-C-46, 2-amino-N-(3-chloro-5-(4-methylpiperazine-1-carbonyl)-[2,4′-bipyridin]-3′-yl)-6-fluoropyrazolo[1,5-a]pyrimidine-3-carboxamide] was 6.00 to 8.00.
Take `Nc1nn2cc(F)cnc2c1C(=O)Nc1cnccc1N1CCC(C(=O)N2CC(F)(F)C2)CC1` [I-G-80, 2-amino-N-(4-(4-(3,3-difluoroazetidine-1-carbonyl)piperidin-1-yl)pyridin-3-yl)-6-fluoropyrazolo[1,5-a]pyrimidine-3-carboxamide]: under setting [1], the pKi was 6.00 to 8.00.
Regarding `CN1CCN(c2c(F)cncc2NC(=O)c2c(N)nn3cc(F)cnc23)CC1` [I-N-15, 2-amino-6-fluoro-N-(5-fluoro-4-(4-methylpiperazin-1-yl)pyridin-3-yl)pyrazolo[1,5-a]pyrimidine-3-carboxamide], the pKi under setting [1] is 6.00 to 8.00.
On to `Nc1nn2cc(F)cnc2c1C(=O)Nc1cnccc1-c1cccnc1O` [I-C-32, 2-amino-6-fluoro-N-(2-hydroxy-[3,4′-bipyridin]-3′-yl)pyrazolo[1,5-a]pyrimidine-3-carboxamide], for which, under setting [1], the negative logarithm of the Ki (pKi) is 6.00 to 8.00.
Same read-out and setting: the figure for `CN(C)C(=O)C1CCN(c2ccncc2NC(=O)c2c(N)nn3cc(F)cnc23)CC1` [I-G-2, 2-amino-N-(4-(4-(dimethylcarbamoyl)piperidin-1-yl)pyridin-3-yl)-6-fluoropyrazolo[1,5-a]pyrimidine-3-carboxamide] is 6.00 to 8.00.
`CN1CCN(c2ccncc2NC(=O)c2c(N)nn3cc(Cl)cnc23)CC1(C)C` [I-N-53, 2-amino-6-chloro-N-(4-(3,3,4-trimethylpiperazin-1-yl)pyridin-3-yl)pyrazolo[1,5-a]pyrimidine-3-carboxamide]: under setting [1], the pKi was 6.00 to 8.00.
For the molecule `CN1CCCC(Oc2ccncc2NC(=O)c2c(N)nn3cc(Cl)cnc23)C1` (stereo not drawn) [I-O-51, 2-amino-6-chloro-N-(4-((1-methylpiperidin-3-yl)oxy)pyridin-3-yl)pyrazolo[1,5-a]pyrimidine-3-carboxamide], under setting [1], the negative logarithm of the Ki (pKi) is 6.00 to 8.00.
On the same count and under the same terms, the value for `Cc1ccn(-c2ccncc2NC(=O)c2c(N)nn3cc(F)cnc23)n1` [I-N-225, 2-amino-6-fluoro-N-(4-(3-methyl-1H-pyrazol-1-yl)pyridin-3-yl)pyrazolo[1,5-a]pyrimidine-3-carboxamide] was 6.00 to 8.00; that for `Nc1nn2cc(F)cnc2c1C(=O)Nc1cncc(Cl)c1N1CCC(O)C1` (stereo not drawn) [I-N-284, 2-amino-N-(5-chloro-4-(3-hydroxypyrrolidin-1-yl)pyridin-3-yl)-6-fluoropyrazolo[1,5-a]pyrimidine-3-carboxamide] was 6.00 to 8.00; that for `Nc1nn2cc(F)cnc2c1C(=O)Nc1cnccc1O[C@H]1CCCN(C2COC2)C1` [I-O-9, (S)-2-amino-6-fluoro-N-(4-((1-(oxetan-3-yl)piperidin-3-yl)oxy)pyridin-3-yl)pyrazolo[1,5-a]pyrimidine-3-carboxamide] was 6.00 to 8.00.
`CN(C)CC1CCN(c2ccncc2NC(=O)c2c(N)nn3cc(F)cnc23)CC1` [I-N-267, 2-amino-N-(4-(4-((dimethylamino)methyl)piperidin-1-yl)pyridin-3-yl)-6-fluoropyrazolo[1,5-a]pyrimidine-3-carboxamide]: the pKi under setting [1] is 6.00 to 8.00.
`CN1CCN(C(=O)N2CCN(c3c(F)cncc3NC(=O)c3c(N)nn4cc(F)cnc34)CC2)CC1` [I-N-140, 2-amino-6-fluoro-N-(5-fluoro-4-(4-(4-methylpiperazine-1-carbonyl)piperazin-1-yl)pyridin-3-yl)pyrazolo[1,5-a]pyrimidine-3-carboxamide]: under setting [1], the pKi was 6.00 to 8.00.
On to `Nc1nn2cc(Cl)cnc2c1C(=O)Nc1cnccc1N1CCC(N2CC[C@H](F)C2)CC1` [I-N-103, (S)-2-amino-6-chloro-N-(4-(4-(3-fluoropyrrolidin-1-yl)piperidin-1-yl)pyridin-3-yl)pyrazolo[1,5-a]pyrimidine-3-carboxamide], for which the negative logarithm of the Ki (pKi) under setting [1] was 6.00 to 8.00.
Take `CCOc1ccncc1NC(=O)c1c(N)nn2cc(F)cnc12` [I-O-14, 2-amino-N-(4-ethoxypyridin-3-yl)-6-fluoropyrazolo[1,5-a]pyrimidine-3-carboxamide]: the pKi under setting [1] was 6.00 to 8.00.
On the same count and under the same terms, the value for `Nc1nn2cc(F)cnc2c1C(=O)Nc1cncc(F)c1N1CCC2(CC1)COC2` [I-N-239, 2-amino-6-fluoro-N-(5-fluoro-4-(2-oxa-7-azaspiro[3.5]nonan-7-yl)pyridin-3-yl)pyrazolo[1,5-a]pyrimidine-3-carboxamide] was 6.00 to 8.00.
Take `Cc1cncn1-c1ccncc1NC(=O)c1c(N)nn2cc(F)cnc12` [I-N-283, 2-amino-6-fluoro-N-(4-(5-methyl-1H-imidazol-1-yl)pyridin-3-yl)pyrazolo[1,5-a]pyrimidine-3-carboxamide]: the pKi under setting [1] was 6.00 to 8.00.
Still for that read-out and setting: the value for `Nc1nn2cc(F)cnc2c1C(=O)Nc1cncc(F)c1OC1CCN(C2COC2)CC1` [I-O-91, 2-amino-6-fluoro-N-(5-fluoro-4-((1-(oxetan-3-yl)piperidin-4-yl)oxy)pyridin-3-yl)pyrazolo[1,5-a]pyrimidine-3-carboxamide] was 6.00 to 8.00; that for `Nc1nn2cc(F)cnc2c1C(=O)Nc1cncc(F)c1N1CCN2C(=O)CCCC2C1` (stereo not drawn) [I-N-277, 2-amino-6-fluoro-N-(5-fluoro-4-(6-oxohexahydro-1H-pyrido[1,2-a]pyrazin-2(6H)-yl)pyridin-3-yl)pyrazolo[1,5-a]pyrimidine-3-carboxamide] was 6.00 to 8.00.
On to `CN1CCN(c2ccncc2NC(=O)c2c(N)nn3cc(Cl)cnc23)CC1` [I-N-59, 2-amino-6-chloro-N-(4-(4-methylpiperazin-1-yl)pyridin-3-yl)pyrazolo[1,5-a]pyrimidine-3-carboxamide], for which, under setting [1], the pKi is 6.00 to 8.00.
In the case of `CN1CC2(CCN(c3ccncc3NC(=O)c3c(N)nn4cc(F)cnc34)CC2)CC1=O` [I-N-236, 2-amino-6-fluoro-N-(4-(2-methyl-3-oxo-2,8-diazaspiro[4.5]decan-8-yl)pyridin-3-yl)pyrazolo[1,5-a]pyrimidine-3-carboxamide], the pKi under setting [1] was 6.00 to 8.00.
For `CN1CCC[C@@H]1C(=O)N1CCN(c2ccncc2NC(=O)c2c(N)nn3cc(F)cnc23)CC1` [I-N-199, (R)-2-amino-6-fluoro-N-(4-(4-(1-methylpyrrolidine-2-carbonyl)piperazin-1-yl)pyridin-3-yl)pyrazolo[1,5-a]pyrimidine-3-carboxamide], under setting [1], the pKi was 6.00 to 8.00.
On the same count and under the same terms, the value for `Cc1ccc(-c2ccncc2NC(=O)c2c(N)nn3cc(F)cnc23)cn1` [I-C-22, 2-amino-6-fluoro-N-(6-methyl-[3,4′-bipyridin]-3′-yl)pyrazolo[1,5-a]pyrimidine-3-carboxamide] was 6.00 to 8.00; that for `Nc1nn2cc(Cl)cnc2c1C(=O)Nc1cncc(F)c1N1CCC(C(=O)N2CCN3CCC2CC3)CC1` [I-G-87, N-(4-(4-(1,4-diazabicyclo[3.2.2]nonane-4-carbonyl)piperidin-1-yl)-5-fluoropyridin-3-yl)-2-amino-6-chloropyrazolo[1,5-a]pyrimidine-3-carboxamide] was 6.00 to 8.00; that for `Nc1nn2cc(F)cnc2c1C(=O)Nc1cncc(F)c1N1CCC(S(=O)(=O)N2CCC2)CC1` [I-N-169, 2-amino-N-(4-(4-(azetidin-1-ylsulfonyl)piperidin-1-yl)-5-fluoropyridin-3-yl)-6-fluoropyrazolo[1,5-a]pyrimidine-3-carboxamide] was 6.00 to 8.00.
